Data as given in patent US20250388589A1, “TRICYCLIC HETEROCYCLIC DERIVATIVES, COMPOSITIONS AND USES THEREOF” (Danatlas Pharmaceuticals Co., Ltd., priority 2022, published 2025).

Assays:
[1] = target: hPARG (C-terminal His6-tag) (Homo sapiens (Human), UniProt Q86W56); experiment: PARG Enzymatic Activity Assay (HTRF); type: biochemical; conditions: hPARG 65 pM final, biotinylated-NAD ribosylated PARP1 8 nM final
How it was run: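 Readout is time-resolved fluorescence at 620 and 665 nm after 60 min RT detection with streptavidin-Eu cryptate and anti-6HIS-XL665; IC50 by 4-parameter fit, 1% DMSO and no-enzyme controls. Reaction: 8 nM final ribosylated PARP1 substrate for 10 min RT, following 60 min RT enzyme (65 pM)–compound preincubation in Tris pH 7.4 buffer with EDTA, DTT, KCl.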

Kuramochi cell line = experiment: Cell Viability Assay (Cell Titer-Glo, 7 days); type: cell-based; conditions: 168 h, Kuramochi cells, 7 days incubation, read-out: PARG Cell viability (IC50)
How it was run: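 IC50 from a four-parameter fit of CellTiter-Glo luminescence, scaled between DMSO-treated (high) and medium-only (low) wells. Kuramochi cells (400/well, RPMI/10% FBS) exposed 7 days at 37 °C to 9 concentrations, 3-fold steps, in duplicate.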

Sequence of hPARG (C-terminal His6-tag) (Q86W56 whole entry): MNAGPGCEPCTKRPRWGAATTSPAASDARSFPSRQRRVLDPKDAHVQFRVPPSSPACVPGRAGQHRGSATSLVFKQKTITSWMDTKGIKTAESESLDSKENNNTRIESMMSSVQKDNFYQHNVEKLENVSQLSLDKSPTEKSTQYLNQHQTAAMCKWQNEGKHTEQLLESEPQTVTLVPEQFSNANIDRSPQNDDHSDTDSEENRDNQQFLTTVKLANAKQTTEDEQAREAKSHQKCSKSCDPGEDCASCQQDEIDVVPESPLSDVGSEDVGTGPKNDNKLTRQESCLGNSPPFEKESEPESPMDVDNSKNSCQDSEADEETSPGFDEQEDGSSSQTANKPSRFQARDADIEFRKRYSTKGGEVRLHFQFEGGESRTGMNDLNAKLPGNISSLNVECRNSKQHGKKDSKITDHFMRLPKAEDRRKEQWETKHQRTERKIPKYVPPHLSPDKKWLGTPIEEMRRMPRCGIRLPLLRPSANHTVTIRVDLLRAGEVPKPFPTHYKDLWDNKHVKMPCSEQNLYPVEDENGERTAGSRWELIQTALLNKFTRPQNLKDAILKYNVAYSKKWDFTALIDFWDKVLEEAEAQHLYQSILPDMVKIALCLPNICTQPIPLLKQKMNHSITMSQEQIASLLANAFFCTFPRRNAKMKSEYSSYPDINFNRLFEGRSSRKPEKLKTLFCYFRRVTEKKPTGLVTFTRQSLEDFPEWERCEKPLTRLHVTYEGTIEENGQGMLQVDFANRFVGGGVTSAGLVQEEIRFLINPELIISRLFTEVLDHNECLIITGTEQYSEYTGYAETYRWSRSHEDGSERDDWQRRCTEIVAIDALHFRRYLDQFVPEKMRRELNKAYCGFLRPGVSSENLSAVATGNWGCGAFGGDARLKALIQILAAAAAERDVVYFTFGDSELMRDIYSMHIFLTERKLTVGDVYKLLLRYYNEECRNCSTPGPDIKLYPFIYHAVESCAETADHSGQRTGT

| IC50 [1] | Compound | IC50 (Kuramochi cell line) |
| --- | --- | --- |
| 100 to 1000 nM | N#CC1(NS(=O)(=O)c2ccc3c4c(N5CC6OCCOC6C5)ncnc4n(-c4nnc(C(F)F)s4)c3c2)CC1 (stereo not shown) [Example 165, N-(1-Cyanocyclopropyl)-9-(5-(difluoromethyl)-1,3,4-thiadiazol-2-yl)-4-(hexahydro-6H-[1,4]dioxino[2,3-c]pyrrol-6-yl)-9H-pyrimido[4,5-b]indole-7-sulfonamide] | 100 to 1000 nM |
| < 100 nM | N#CC1(NS(=O)(=O)c2ccc3c4c(C5CCN(C(=O)C6(O)CC6)CC5)ncnc4n(-c4nnc(C(F)F)s4)c3c2)CC1 [Example 114, N-(1-cyanocyclopropyl)-9-(5-(difluoromethyl)-1,3,4-thiadiazol-2-yl)-4-(1-(1-hydroxycyclopropane-1-carbonyl)piperidin-4-yl)-9H-pyrimido[4,5-b]indole-7-sulfonamide] | 100 to 1000 nM |
| < 100 nM | C[C@@H]1CN(c2ncnc3c2c2ccc(S(=O)(=O)NC4(C#N)CC4)cc2n3-c2nnc(C(F)F)s2)C[C@H](C)N1C(=O)C1COC1 [Example 58, N-(1-Cyanocyclopropyl)-9-(5-(difluoromethyl)-1,3,4-thiadiazol-2-yl)-4-((3S,5R)-3,5-dimethyl-4-(oxetane-3-carbonyl)piperazin-1-yl)-9H-pyrimido[4,5-b]indole-7-sulfonamide] | < 100 nM |
| < 100 nM | N#CC1CCN(c2ncnc3c2c2ccc(S(=O)(=O)NC4(C#N)CC4)cc2n3-c2nnc(C(F)F)s2)CC1 [Example 49, N-(1-Cyanocyclopropyl)-4-(4-cyanopiperidin-1-yl)-9-(5-(difluoromethyl)-1,3,4-thiadiazol-2-yl)-9H-pyrimido[4,5-b]indole-7-sulfonamide] | < 100 nM |
| < 100 nM | CC1(C(=O)N2CCN(c3ncnc4c3c3ccc(S(=O)(=O)NC5(C#N)CC5)cc3n4-c3nnc(C(F)F)s3)CC2)CC1 [Example 10, N-(1-Cyanocyclopropyl)-9-(5-(difluoromethyl)-1,3,4-thiadiazol-2-yl)-4-(4-(1-methylcyclopropane-1-carbonyl)piperazin-1-yl)-9H-pyrimido[4,5-b]indole-7-sulfonamide] | < 100 nM |
| < 100 nM | CS(=O)(=O)N1CCC(c2ncnc3c2c2ccc(S(=O)(=O)NC4(C#N)CC4)cc2n3-c2nnc(C(F)F)s2)CC1 [Example 121, N-(1-Cyanocyclopropyl)-9-(5-(difluoromethyl)-1,3,4-thiadiazol-2-yl)-4-(1-(methylsulfonyl)piperidin-4-yl)-9H-pyrimido[4,5-b]indole-7-sulfonamide] | < 100 nM |
| < 100 nM | CO[C@@H]1CCN(c2ncnc3c2c2ccc(S(=O)(=O)NC4(C#N)CC4)cc2n3-c2nnc(C(F)F)s2)C[C@@H]1F [Example 171, N-(1-Cyanocyclopropyl)-9-(5-(difluoromethyl)-1,3,4-thiadiazol-2-yl)-4-((3S,4R)-3-fluoro-4-methoxypiperidin-1-yl)-9H-pyrimido[4,5-b]indole-7-sulfonamide] | < 100 nM |
| < 100 nM | C[C@H]1CN(c2ncnc3c2c2ccc(S(=O)(=O)NC4(C)CC4)cc2n3-c2nnc(C(F)F)s2)CCN1C(=O)N(C)C [Example 101, (S)-4-(9-(5-(Difluoromethyl)-1,3,4-thiadiazol-2-yl)-7-(N-(1-methylcyclopropyl)sulfamoyl)-9H-pyrimido[4,5-b]indol-4-yl)-N,N,2-trimethylpiperazine-1-carboxamide] | < 100 nM |
| 100 to 1000 nM | CC(C)OC(=O)N1CCN(c2ncnc3c2c2ccc(S(=O)(=O)NC4(C#N)CC4)cc2n3-c2nnc(C(F)F)s2)CC1 [Example 15, Isopropyl 4-(7-(N-(1-cyanocyclopropyl)sulfamoyl)-9-(5-(difluoromethyl)-1,3,4-thiadiazol-2-yl)-9H-pyrimido[4,5-b]indol-4-yl)piperazine-1-carboxylate] | 100 to 1000 nM |
| 100 to 1000 nM | CC(C)c1nnc(-n2c3cc(S(=O)(=O)NC4(C#N)CC4)ccc3c3c(N4CCN(C(=O)C5CC5)CC4)ncnc32)s1 [Example 186, N-(1-Cyanocyclopropyl)-4-(4-(cyclopropanecarbonyl)piperazin-1-yl)-9-(5-isopropyl-1,3,4-thiadiazol-2-yl)-9H-pyrimido[4,5-b]indole-7-sulfonamide] | 100 to 1000 nM |
| < 100 nM | CO[C@H]1CCN(c2ncnc3c2c2ccc(S(=O)(=O)NC4(C#N)CC4)cc2n3-c2nnc(C(F)F)s2)C[C@H]1F [Example 173, N-(1-cyanocyclopropyl)-9-(5-(difluoromethyl)-1,3,4-thiadiazol-2-yl)-4-((3R,4S)-3-fluoro-4-methoxypiperidin-1-yl)-9H-pyrimido[4,5-b]indole-7-sulfonamide] | < 100 nM |
| < 100 nM | CC(C)C(=O)N1CC=C(c2ncnc3c2c2ccc(S(=O)(=O)NC4(C#N)CC4)cc2n3-c2nnc(C(F)F)s2)CC1 [Example 74, N-(1-Cyanocyclopropyl)-9-(5-(difluoromethyl)-1,3,4-thiadiazol-2-yl)-4-(1-isobutyryl-1,2,3,6-tetrahydropyridin-4-yl)-9H-pyrimido[4,5-b]indole-7-sulfonamide] | < 100 nM |
| < 100 nM | N#CC1(NS(=O)(=O)c2ccc3c4c(N5CCN(C(=O)C6CC6)CC5)ncnc4n(-c4nnc(C(F)F)s4)c3c2)CC1 [Example 2, N-(1-Cyanocyclopropyl)-4-(4-(cyclopropanecarbonyl)piperazin-1-yl)-9-(5-(difluoromethyl)-1,3,4-thiadiazol-2-yl)-9H-pyrimido[4,5-b]indole-7-sulfonamide] | < 100 nM |
| < 100 nM | N#CC1(NS(=O)(=O)c2ccc3c4c(N5CCC(N6CCC6)[C@@H](F)C5)ncnc4n(-c4nnc(C(F)F)s4)c3c2)CC1 (stereo partly drawn) [Example 208, 4-((3S)-4-(Azetidin-1-yl)-3-fluoropiperidin-1-yl)-N-(1-cyanocyclopropyl)-9-(5-(difluoromethyl)-1,3,4-thiadiazol-2-yl)-9H-pyrimido[4,5-b]indole-7-sulfonamide] | < 100 nM |
| < 100 nM | CN(C)C1CCN(c2ncnc3c2c2ccc(S(=O)(=O)NC4(C#N)CC4)cc2n3-c2nnc(C(F)F)s2)C[C@@H]1F (stereo partly drawn) [Example 175, N-(1-cyanocyclopropyl)-9-(5-(difluoromethyl)-1,3,4-thiadiazol-2-yl)-4-((3S)-4-(dimethylamino)-3-fluoropiperidin-1-yl)-9H-pyrimido[4,5-b]indole-7-sulfonamide] | < 100 nM |
| < 100 nM | CN(C)C(=O)N1CC=C(c2ncnc3c2c2cc(F)c(S(=O)(=O)NC4(C)CC4)cc2n3-c2nnc(C(F)F)s2)CC1 [Example 81, 4-(9-(5-(Difluoromethyl)-1,3,4-thiadiazol-2-yl)-6-fluoro-7-(N-(1-methylcyclopropyl)sulfamoyl)-9H-pyrimido[4,5-b]indol-4-yl)-N,N-dimethyl-3,6-dihydropyridine-1(2H)-carboxamide] | < 100 nM |
| < 100 nM | CC1(NS(=O)(=O)c2ccc3c4c(N5CCN6CCOC[C@H]6C5)ncnc4n(-c4nnc(C(F)F)s4)c3c2)CC1 [Example 184, (R)-9-(5-(Difluoromethyl)-1,3,4-thiadiazol-2-yl)-4-(hexahydropyrazino[2,1-c][1,4]oxazin-8(1H)-yl)-N-(1-methylcyclopropyl)-9H-pyrimido[4,5-b]indole-7-sulfonamide] | 100 to 1000 nM |
| < 100 nM | N#CC1(NS(=O)(=O)c2ccc3c4c(C5CCNCC5)ncnc4n(-c4nnc(C(F)F)s4)c3c2)CC1 [Example 87, N-(1-Cyanocyclopropyl)-9-(5-(difluoromethyl)-1,3,4-thiadiazol-2-yl)-4-(piperidin-4-yl)-9H-pyrimido[4,5-b]indole-7-sulfonamide] | 100 to 1000 nM |
| < 100 nM | CC(C)C(=O)N1[C@H](C)CN(c2ncnc3c2c2ccc(S(=O)(=O)NC4(C#N)CC4)cc2n3-c2nnc(C(F)F)s2)C[C@@H]1C [Example 62, N-(1-Cyanocyclopropyl)-9-(5-(difluoromethyl)-1,3,4-thiadiazol-2-yl)-4-((3S,5R)-4-isobutyryl-3,5-dimethylpiperazin-1-yl)-9H-pyrimido[4,5-b]indole-7-sulfonamide] | < 100 nM |
| < 100 nM | CC(C)C(=O)N1C=CC(c2ncnc3c2c2cc(F)c(S(=O)(=O)NC4(C#N)CC4)cc2n3-c2nnc(C(F)F)s2)CC1 (stereo not shown) [Example 92, N-(1-Cyanocyclopropyl)-9-(5-(difluoromethyl)-1,3,4-thiadiazol-2-yl)-6-fluoro-4-(1-isobutyryl-1,2,3,4-tetrahydropyridin-4-yl)-9H-pyrimido[4,5-b]indole-7-sulfonamide] | < 100 nM |
| < 100 nM | CC(C)C(=O)N1C[C@@H](C)N(c2ncnc3c2c2ccc(S(=O)(=O)NC4(C)CC4)cc2n3-c2nnc(C(F)F)s2)C[C@@H]1C [Example 64, 9-(5-(Difluoromethyl)-1,3,4-thiadiazol-2-yl)-4-((2R,5S)-4-isobutyryl-2,5-dimethylpiperazin-1-yl)-N-(1-methylcyclopropyl)-9H-pyrimido[4,5-b]indole-7-sulfonamide] | < 100 nM |
| < 100 nM | N#CC1(NS(=O)(=O)c2ccc3c4c(C5CCN(C(=O)N6CCCO6)CC5)ncnc4n(-c4nnc(C(F)F)s4)c3c2)CC1 [Example 139] | < 100 nM |
| 100 to 1000 nM | CC(C)C(=O)N1C[C@H](C)N(c2ncnc3c2c2ccc(S(=O)(=O)NC4(C#N)CC4)cc2n3-c2nnc(C(F)F)s2)C[C@@H]1C [Example 57, N-(1-cyanocyclopropyl)-9-(5-(difluoromethyl)-1,3,4-thiadiazol-2-yl)-4-((2S,5S)-4-isobutyryl-2,5-dimethylpiperazin-1-yl)-9H-pyrimido[4,5-b]indole-7-sulfonamide] | 100 to 1000 nM |
